Data: PubChem BioAssay AID256 (DTP/NCI, 2004)
“And” between values parts separate entries of the source, which are not always exact repeats. Equal entries are not always repeated. Toxic doses and inconclusive results are not listed. The calls were made as follows: active = survival T/C of 150% or more; inactive = T/C below 125% in these data.

Tested on: CD2F1 mice, L1210 leukemia ip, survival T/C
Experiment: NCI In Vivo Anticancer Drug Screen. Data for tumor model L1210 Leukemia (intraperitoneal) in CD2F1 (CDF1) mice
Details: higher = longer survival
Summary of the method: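 Activity against a transplanted murine tumor was judged by comparing the compound group with a vehicle group. The outcome in the treated animals was divided by that in the controls.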

[1] = endpoint: mean survival time, dose: 100.0 mg/kg/injection, schedule: Q01DX009 (ip), vehicle: saline with Tween-80
[2] = endpoint: mean survival time, dose: 200.0 mg/kg/injection, schedule: Q01DX009 (ip), vehicle: saline with Tween-80
[3] = endpoint: mean survival time, dose: 400.0 mg/kg/injection, schedule: Q01DX009 (ip), vehicle: saline with Tween-80
[4] = endpoint: mean survival time, dose: 18.8 mg/kg/injection, schedule: Q01DX009 (ip), vehicle: saline
[5] = endpoint: mean survival time, dose: 37.5 mg/kg/injection, schedule: Q01DX009 (ip), vehicle: saline
[6] = endpoint: mean survival time, dose: 100.0 mg/kg/injection, schedule: Q04DX003 (ip), vehicle: saline with Tween-80
[7] = endpoint: mean survival time, dose: 200.0 mg/kg/injection, schedule: Q04DX003 (ip), vehicle: saline with Tween-80
[8] = endpoint: mean survival time, dose: 400.0 mg/kg/injection, schedule: Q04DX003 (ip), vehicle: saline with Tween-80

Measured: T/C

CC(Br)C(=O)NC(Cc1ccccc1)C(=O)O (stereo unspecified)
inactive: [1] 101 % of control | [2] 97 % of control | [3] 97 % of control

CC1CCC(C(C)C)C(NCCO)C1 (stereo unspecified)
inactive: [4] 96 % of control | [5] 97 % of control | endpoint: mean survival time, dose: 75.0 mg/kg/injection, schedule: Q01DX009 (ip), vehicle: saline 100 % of control

CC1CC=CCC1/C=N\Nc1ccc([N+](=O)[O-])cc1[N+](=O)[O-] (stereo unspecified)
inactive: [6] 98 % of control | [7] 94 % of control | [8] 100 % of control

O=C(O)CN(CC(=O)O)Cc1ccccc1
inactive: endpoint: mean survival time, dose: 100.0 mg/kg/injection, schedule: Q01DX001 (ip), vehicle: saline 103 % of control | endpoint: mean survival time, dose: 200.0 mg/kg/injection, schedule: Q01DX001 (ip), vehicle: saline 103 % of control | endpoint: mean survival time, dose: 400.0 mg/kg/injection, schedule: Q01DX001 (ip), vehicle: saline 103 % of control

CCOC(=N)CNC(=O)c1ccccc1
inactive: endpoint: mean survival time, dose: 100.0 mg/kg/injection, schedule: Q04DX002 (ip), vehicle: saline with Tween-80 105 % of control | endpoint: mean survival time, dose: 200.0 mg/kg/injection, schedule: Q04DX002 (ip), vehicle: saline with Tween-80 98 % of control | endpoint: mean survival time, dose: 400.0 mg/kg/injection, schedule: Q04DX002 (ip), vehicle: saline with Tween-80 98 % of control

OC(c1cc2ccc(C(F)(F)F)cc2c2cc(C(F)(F)F)ccc12)C1CCCCN1 (stereo unspecified)
inactive: endpoint: mean survival time, dose: 9.4 mg/kg/injection, schedule: Q01DX009 (ip), vehicle: saline 101 % of control | [4] 102 % of control | [5] 96 % of control

C[n+]1csc2ccccc21
inactive: endpoint: mean survival time, dose: 100.0 mg/kg/injection, schedule: Q01DX001 (ip), vehicle: saline with Tween-80 104 % of control | [1] 105 % of control | [6] 103 % of control | endpoint: mean survival time, dose: 200.0 mg/kg/injection, schedule: Q01DX001 (ip), vehicle: saline with Tween-80 98 % of control | [2] 105 % of control | [7] 103 % of control | endpoint: mean survival time, dose: 400.0 mg/kg/injection, schedule: Q01DX001 (ip), vehicle: saline with Tween-80 104 % of control | [3] 103 % of control | [8] 105 % of control

CCCCNCC(=O)O[C@]1(CC)C(=O)OCc2c1cc1n(c2=O)Cc2cc3ccccc3nc2-1
inactive: endpoint: median survival time, dose: 7.5 mg/kg/injection, schedule: Q04DX002 (ip), vehicle: saline 109 % of control | endpoint: median survival time, dose: 15.0 mg/kg/injection, schedule: Q04DX002 (ip), vehicle: saline 117 % of control and 124 % of control
active: endpoint: median survival time, dose: 7.5 mg/kg/injection, schedule: Q04HX004 (iv), vehicle: dextrose 150 % of control | endpoint: median survival time, dose: 7.5 mg/kg/injection, schedule: Q04HX004 (iv), vehicle: other 158 % of control | endpoint: median survival time, dose: 15.0 mg/kg/injection, schedule: Q04HX004 (iv), vehicle: dextrose 172 % of control | endpoint: median survival time, dose: 15.0 mg/kg/injection, schedule: Q04HX004 (iv), vehicle: other 186 % of control | endpoint: median survival time, dose: 30.0 mg/kg/injection, schedule: Q04DX002 (ip), vehicle: saline 158 % of control | endpoint: median survival time, dose: 30.0 mg/kg/injection, schedule: Q04HX004 (iv), vehicle: dextrose 218 % of control | endpoint: median survival time, dose: 30.0 mg/kg/injection, schedule: Q04HX004 (iv), vehicle: other 235 % of control | endpoint: median survival time, dose: 40.0 mg/kg/injection, schedule: Q04HX004 (iv), vehicle: other 247 % of control | endpoint: median survival time, dose: 60.0 mg/kg/injection, schedule: Q04DX002 (ip), vehicle: saline 195 % of control and 212 % of control

CC(=O)N(O)CCCCCNC(=O)CCC(=O)N(O)CCCCCNC(=O)CCC(=O)N(O)CCCCCN
inactive: endpoint: mean survival time, dose: 125.0 mg/kg/injection, schedule: Q03HX024 (ip), vehicle: water 102 % of control | endpoint: mean survival time, dose: 188.0 mg/kg/injection, schedule: Q03HX024 (ip), vehicle: water 97 % of control | endpoint: mean survival time, dose: 280.0 mg/kg/injection, schedule: Q03HX024 (ip), vehicle: water 104 % of control
